Test results as given in patent publication US20050209278A1, “Piperidinyl- and piperazinyl-sulfonylmethyl hydroxamic acids and their use as protease inhibitors” (priority 2002, published 2005).

How the values were obtained:
Type in all cases: biochemical
MMP-2 = target: T1, MMP-2 (Homo sapiens, UniProt P08253); assay: MMP-2 inhibition (in vitro Ki); details: Table 9; read-out: MMP-2 Ki (IC-50)
T1 construct: made in house; host or cells: MMP-2-transfected p2AHT2 cells
T1 sequence (P08253 110-660): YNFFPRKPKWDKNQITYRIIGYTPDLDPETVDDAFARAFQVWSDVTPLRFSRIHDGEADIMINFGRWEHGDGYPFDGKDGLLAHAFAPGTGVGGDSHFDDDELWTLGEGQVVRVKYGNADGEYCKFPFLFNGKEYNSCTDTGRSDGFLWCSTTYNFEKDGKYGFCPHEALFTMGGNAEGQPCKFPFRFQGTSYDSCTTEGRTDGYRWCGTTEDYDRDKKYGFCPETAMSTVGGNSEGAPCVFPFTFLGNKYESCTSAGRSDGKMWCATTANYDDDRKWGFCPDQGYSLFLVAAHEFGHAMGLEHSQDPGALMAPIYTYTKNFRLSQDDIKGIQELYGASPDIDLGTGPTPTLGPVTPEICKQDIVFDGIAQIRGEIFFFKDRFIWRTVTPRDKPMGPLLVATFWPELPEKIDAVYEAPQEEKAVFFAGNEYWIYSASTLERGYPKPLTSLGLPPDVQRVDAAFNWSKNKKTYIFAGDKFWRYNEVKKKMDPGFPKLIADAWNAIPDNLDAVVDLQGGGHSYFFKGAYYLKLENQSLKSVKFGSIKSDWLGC

MMP-1 = target: T2, MMP-1 (Homo sapiens, UniProt P03956); assay: MMP-1 inhibition (in vitro Ki); details: Table 9; read-out: MMP-1 Ki (IC-50)
T2 construct: made in house; host or cells: MMP-1-transfected HT-1080 cells (spent media)
T2 sequence (P03956 100-469): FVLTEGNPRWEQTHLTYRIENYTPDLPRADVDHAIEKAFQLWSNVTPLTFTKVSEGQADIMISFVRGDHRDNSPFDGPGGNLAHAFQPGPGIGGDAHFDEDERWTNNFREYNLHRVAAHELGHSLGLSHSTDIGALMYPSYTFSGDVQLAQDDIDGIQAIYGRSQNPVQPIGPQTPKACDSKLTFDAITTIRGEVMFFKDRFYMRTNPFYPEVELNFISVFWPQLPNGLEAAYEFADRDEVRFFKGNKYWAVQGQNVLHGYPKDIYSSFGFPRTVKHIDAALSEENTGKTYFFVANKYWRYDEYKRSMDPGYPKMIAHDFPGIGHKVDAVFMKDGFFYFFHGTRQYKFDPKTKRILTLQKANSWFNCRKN

MMP-14 = target: T3, MMP-14 (Homo sapiens, UniProt P50281); assay: MMP-14 inhibition (in vitro Ki); details: Table 9; read-out: MMP-14 Ki (IC-50)
T3 construct: The catalytic domain enzyme was expressed in E. coli inclusion bodies, solubilized in urea; made in house

MMP-13 = target: T4, MMP-13 (Homo sapiens, UniProt P45452); assay: MMP-13 inhibition (in vitro Ki); details: Table 9; read-out: MMP-13 Ki (IC-50)
T4 construct: made in house; host or cells: baculovirus / insect cells

MMP-9 = target: T5, MMP-9 (Homo sapiens, UniProt P14780); assay: MMP-9 inhibition (in vitro Ki); details: Table 9; read-out: MMP-9 Ki (IC-50)
T5 construct: made in house; host or cells: MMP-9-transfected HT1080 cells (spent media)
T5 sequence (P14780 107-707 limits assumed): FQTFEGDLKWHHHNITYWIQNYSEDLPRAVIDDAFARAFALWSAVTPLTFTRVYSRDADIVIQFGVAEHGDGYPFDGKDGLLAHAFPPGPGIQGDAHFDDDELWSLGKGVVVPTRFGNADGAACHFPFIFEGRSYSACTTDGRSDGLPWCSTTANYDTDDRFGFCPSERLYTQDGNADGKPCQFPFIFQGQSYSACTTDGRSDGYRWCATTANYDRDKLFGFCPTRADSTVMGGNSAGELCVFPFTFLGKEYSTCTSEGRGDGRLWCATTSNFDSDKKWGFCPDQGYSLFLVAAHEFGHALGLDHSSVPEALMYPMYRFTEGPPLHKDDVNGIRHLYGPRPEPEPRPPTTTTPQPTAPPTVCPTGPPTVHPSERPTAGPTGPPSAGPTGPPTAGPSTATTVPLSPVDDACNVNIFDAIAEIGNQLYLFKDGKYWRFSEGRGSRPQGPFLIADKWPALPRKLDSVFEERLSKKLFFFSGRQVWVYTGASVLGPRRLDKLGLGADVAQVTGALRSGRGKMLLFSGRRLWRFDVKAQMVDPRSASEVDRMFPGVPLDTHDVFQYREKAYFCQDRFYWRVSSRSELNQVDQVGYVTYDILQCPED

SMILES	Ki (MMP-2) [nM]	Ki (MMP-1) [nM]	Ki (MMP-14) [nM]	Ki (MMP-13) [nM]	Ki (MMP-9) [nM]
CCCC(=O)c1ccc(C2CCN(S(=O)(=O)C3(C(=O)NO)CCOCC3)CC2)nc1 [Example A159]	2.65	1840	8580	1.91	3.99
O=C(NO)C1(S(=O)(=O)N2CCC(CCCc3nc(-c4ccc(OC(F)(F)F)cc4)no3)CC2)CCOCC1 [Example A160]	529	> 10000	> 10000	40.9	613
O=C(NO)C1(S(=O)(=O)N2CCC(c3ccc(CCC(F)F)cn3)CC2)CCOCC1 [Example A161]	0.513	2970	1670	0.474	0.223
O=C(NO)C1(S(=O)(=O)N2CCC(c3ccc(COCC4CC4)cn3)CC2)CCOCC1 [Example A162]	1.15	4510	2290	0.301	0.194
CN(C(=O)CCCCC1CCN(S(=O)(=O)C2(C(=O)NO)CCOCC2)CC1)c1ccc(OC(F)(F)F)cc1 [Example A163]	225	1490	> 10000	2.53	1630
CCS(=O)(=O)c1ccc(N2CCN(S(=O)(=O)C3(C(=O)NO)CCOCC3)CC2)cc1 [Example A164]	63	> 10000	> 10000	42.2	2970
O=C(NO)C1(S(=O)(=O)N2CCC(c3ccc(CCC(F)(F)C(F)(F)F)cn3)CC2)CCN(c2cccnc2)CC1 [Example A165]	1.67	> 10000	7210	0.647	0.979
COCCCc1ccc(C2CCN(S(=O)(=O)C3(C(=O)NO)CCOCC3)CC2)nc1 [Example A166]	1.93	> 10000	5060	1.03	1.77
O=C(NO)C1(S(=O)(=O)N2CCC(c3ccc(CCC(F)(F)C(F)(F)F)cn3)CC2)CCN(c2ccccc2)CC1 [Example A167]	3.04	> 10000	> 10000	1.54	2.21
CC(F)(F)COc1ccc(C2CCN(S(=O)(=O)C3(C(=O)NO)CCOCC3)CC2)nc1 [Example A168]	1.7	2290	8570	1.72	1.5
C/C(COc1ccc(C2CCN(S(=O)(=O)C3(C(=O)NO)CCOCC3)CC2)nc1)=N/O [Example A169]	3.5	5370	9300	4.53	10.2
O=C(NO)C1(S(=O)(=O)N2CCC(c3ccc(CCC(F)(F)C(F)(F)F)cn3)CC2)CCNCC1 [Example A170]	4.21	> 10000	> 10000	1.55	4.01
COCC#Cc1ccc(C2CCN(S(=O)(=O)C3(C(=O)NO)CCOCC3)CC2)nc1 [Example A171]	0.42	4180	604	0.31	0.54
O=C(NO)C1(S(=O)(=O)N2CCC(c3ccc(OCC4CC4)cn3)CC2)CCOCC1 [Example A172]	1.31	4070	3620	1.24	0.36
O=C(NO)C1(S(=O)(=O)N2CCC(c3ccc(COCC(F)(F)F)cn3)CC2)CCOCC1 [Example A173]	7.59	> 10000	> 10000	1.91	1.84
O=C(NO)C1(S(=O)(=O)N2CCC(c3ccc(CCC(F)(F)C(F)(F)F)cn3)CC2)CCN(Cc2ccccc2)CC1 [Example A174]	1.31	> 10000	6520	0.52	0.73

SMILES	Ki (MMP-2) [nM]	Ki (MMP-1) [nM]	Ki (MMP-14) [nM]	Ki (MMP-13) [nM]	Ki (MMP-9) [nM]
O=C(NO)C1(S(=O)(=O)N2CCN(c3ccc(-c4nnn(CC5CC5)n4)cc3)CC2)CCOCC1 [Example A175]	0.07	854	591	0.09	1.37
CCc1nc(-c2ccc(N3CCN(S(=O)(=O)C4(C(=O)NO)CCOCC4)CC3)cc2)no1 [Example A176]	0.08	1710	184	0.15	0.81
COCc1ccc(C2CCN(S(=O)(=O)C3(C(=O)NO)CCOCC3)CC2)nc1 [Example A177]	3.83	> 10000	3360	6.81	0.88
O=C(NO)C1(S(=O)(=O)N2CCC(c3ccc(CCC(F)(F)C(F)(F)F)cn3)CC2)CCN(c2ncccn2)CC1 [Example A178]	0.881	> 10000	1950	0.437	0.596
CCOCc1ccc(C2CCN(S(=O)(=O)C3(C(=O)NO)CCOCC3)CC2)nc1 [Example A179]	2.51	> 10000	4280	1.9	0.49
N#Cc1ccc(N2CCN(S(=O)(=O)C3(C(=O)NO)CCOCC3)CC2)cc1F [Example A180]	2.35	8890	1300	2.1	96.1
CCN1CCC(C(=O)NO)(S(=O)(=O)N2CCC(c3ccc(CCC(F)(F)C(F)(F)F)cn3)CC2)CC1 [Example A181]	2.36	> 10000	> 10000	0.61	1.33
COCCN1CCC(C(=O)NO)(S(=O)(=O)N2CCC(c3ccc(CCC(F)(F)C(F)(F)F)cn3)CC2)CC1 [Example A182]	0.93	> 10000	5890	0.3	0.39
O=C(NO)C1(S(=O)(=O)N2CCN(c3ccc(CCCC(F)(F)F)cc3)CC2)CCN(CC(F)(F)F)CC1 [Example A183]	2.06	> 10000	> 10000	1.07	307
O=C(NO)C1(S(=O)(=O)N2CCN(c3ccc(CCC(F)(F)F)cn3)CC2)CCOCC1 [Example A184]	0.38	7050	985	0.41	0.52
O=C(NO)C1(S(=O)(=O)N2CCC(CCc3ccccc3)CC2)CCOCC1 [Example A185]	1.1	1720	42.7	0.95	1.69
CCn1nnc(-c2ccc(N3CCN(S(=O)(=O)C4(C(=O)NO)CCOCC4)CC3)cc2)n1 [Example A186]	0.23	924	421	0.21	0.55
O=C(NO)C1(S(=O)(=O)N2CCN(c3ccc(-c4cccs4)cn3)CC2)CCOCC1 [Example A187]	0.54	936	1240	0.56	2.14
O=C(NO)C1(S(=O)(=O)N2CCC(c3ccc(-n4ccnc4)cn3)CC2)CCOCC1 [Example A188]	7.61	3310	6200	3.89	54.7
O=C(NO)C1(S(=O)(=O)N2CCN(c3ccc(CCC(F)(F)C(F)(F)F)cn3)CC2)CCOCC1 [Example A190]	0.39	> 10000	3350	0.22	1.09
CSCCOc1ccc(C2CCN(S(=O)(=O)C3(C(=O)NO)CCOCC3)CC2)nc1 [Example A191]	0.31	1710	470	0.13	0.27
